Experiments:
Nucleic Acid = assay: Ratio of drug level in liver to blood in athymic nude BALB/c mouse xenografted with human MDA-MB-231 cells at 3 to 3.7 MBq, iv after 60 mins by gamma counting; type: ADME, organism-based; details: other tissue, 1 h
[1] = Drug uptake in tumor of human MDA-MB-231 cells xenografted athymic nude BALB/c mouse at 3 to 3.7 MBq, iv up to 60 mins by PET scanning analysis; type: ADME, organism-based, Neoplasm; details: in vivo, 1 h
[2] = Drug uptake in tumor of human MDA-MB-231 cells xenografted athymic nude BALB/c mouse at 3 to 3.7 MBq, iv up to 10 mins by PET scanning analysis; type: ADME, organism-based, Neoplasm; details: in vivo
Kidney = assay: Drug uptake in kidney of athymic nude BALB/c mouse xenografted with human MDA-MB-231 cells at 3 to 3.7 MBq, iv up to 60 mins by PET scanning analysis; type: ADME, organism-based; details: in vivo, 1 h
Heart = assay: Drug uptake in heart of athymic nude BALB/c mouse xenografted with human MDA-MB-231 cells at 3 to 3.7 MBq, iv at 30 to 60 mins by PET scanning analysis; type: ADME, organism-based; details: in vivo
Urinary bladder = assay: Drug uptake in bladder of athymic nude BALB/c mouse xenografted with human MDA-MB-231 cells at 3 to 3.7 MBq, iv at 30 to 60 mins by PET scanning analysis; type: ADME, organism-based; details: in vivo

| SMILES | Ratio (Nucleic Acid) | Drug uptake [1] | Drug uptake [2] | Drug uptake (Kidney) | Drug uptake (Heart) | Drug uptake (Urinary bladder) |
| --- | --- | --- | --- | --- | --- | --- |
| O[C@@H]1[C@@H](O)[C@H](O)[C@@H]([18F])[C@H](O)[C@H]1O | 1.5 | Active | Active | – | – | – |
| O[C@@H]1[C@@H](O)[C@H](O)[C@H]([18F])[C@H](O)[C@H]1O | 1.7 | Active | Active | Active | Active | Active |

From ChEMBL document CHEMBL2086228, “Radiosynthesis and in vivo tumor uptake of 2-deoxy-2-[(18)F]fluoro-myo-inositol” (Bioorg Med Chem Lett, 2012)
